Data as given in paper PMC7766697, “Toxicological Screening of Four Bioactive Citroflavonoids: In Vitro, In Vivo, and In Silico Approaches” (Molecules, 2020).
Several values for one entry are separate records, joined by “and”; a condition that tells them apart may be missing. Identical values can stand only once. Like-named read-outs stand apart in the source and are kept apart here.

How the values were obtained:
VERO cells = test: MTT-based cytotoxicity assay in VERO cells; assay type: cell-based, green Monkey; conditions: 48 h, 125 to 750 µg/mL (QRT effect at 250–750 µg/mL)
Procedure: (§1) VERO and MDCK cell lines were acquired from American Type Culture Collection (ATCC, Manassas, VA, USA). […] In vitro cytotoxicity assay was performed on Madin-Darby Canine Kidney Epithelial Cells (MDCK) and green Monkey Kidney Cells (VERO) by MTT-based assay. Briefly, cells were seeded in 96-well plates at a density of 2.5 × 10^3 cells/well. […] The absorbance was measured after 45 min using a microplate reader (Multiskan Asent®) at a wavelength of 550 nm. The criteria for categorizing cytotoxicity against MDCK and VERO cells are based on the U.S. National Cancer Institute (NCI). The criteria comprise as follow: […] All results were expressed as mean ± standard error. The results from the in vivo and in vitro experiments were analyzed using software Origin® 8.0. […] The IC50 (half inhibitory concentration) values were calculated in Origin software®, (Northampton, MA, USA) and one-way ANOVA analysis was compared with cisplatin as the control.

MDCK cells = test: MTT-based cytotoxicity assay in MDCK cells; assay type: cell-based, Canine; conditions: 48 h, 125 to 750 µg/mL (QRT effect at 250 and 500 µg/mL)
Procedure: as §1

Wistar rats [1] = test: Acute oral toxicity, OECD Test No. 423 (mortality, signs, LD50, body weight); assay type: in vivo; conditions: oral 300 and 2000 mg/kg, test days 2, 3, 9 and 10
Procedure: Female Wistar rats (250 g b.w.) were used. These animals were obtained from Bioterium from División de Ciencias de la Salud at the Universidad de Quintana Roo. They were maintained under standard environmental conditions (22 ± 3 °C, 12 h/12 h light/dark cycle), and free access to standard rodent diet and water ad libitum. All animal procedures were conducted under our Federal Regulations for Animal Experimentation and Care and were approved by the Institutional Animal Care and Use Committee of the “Universidad Juárez Autónoma de Tabasco” university (Code:2017-001, Approved: October 2017). Rats were acclimatized for 1 week before the start of experimental procedures.
The half lethal dose (LD50) was estimated using the fixed-dose method described in OECD Guidelines for the Testing of Chemicals (Test No. 423: Acute Oral Toxicity-Class Method; OECD, 2001). […] This method allowed a step-by-step assay according to the chosen dose to begin the experiment. Subsequently, depending on the presence or absence of mortality, the decision to continue within the next step is taken, so fewer experimental animals should be used.
(§2) Rats used for this experiment were fasted for 8 h and were organized into two groups of three rats for each dose and each flavonoid. Likewise, the control group received isotonic 0.9% sodium chloride solution (dose: 5 mL/kg). All rats were closely observed for toxic symptoms and behavioral changes (sedation, hyperactivity, writhing, pruritus, feeding and drinking habits, general morphological changes, and bite legs) for 30 min and periodically 24 h post-administration. Animals were observed daily (14 days) and mortality rate recorded. A LD50 was estimated according to criteria of OECD guide 423.
The rats’ body weight in each group was determined and recorded before the treatment initiation and after 14 days. Changes in the body weight at the end of the 14 days were calculated. Once observation time was completed and to detect any adverse effect, blood samples were collected by cardiac puncture after the previous fasting of 8 h. […] In addition, organ weight was determined.

Wistar rats [2] = assay type: in vivo
Procedure: as §2
The rats’ body weight in each group was determined and recorded before the treatment initiation and after 14 days. Changes in the body weight at the end of the 14 days were calculated. Once observation time was completed and to detect any adverse effect, blood samples were collected by cardiac puncture after the previous fasting of 8 h. For this purpose, rats were anesthetized by intraperitoneally 50 mg/kg sodium pentobarbital. The liver was carefully extracted, rinsed in normal saline, drained on blotting paper, and carefully examined for tissue lesions. In addition, organ weight was determined.
Rat blood samples were analyzed by a hematology auto-analyzer system (Sysmex XS-1000i®, SYSMEX®, Oak Ridge, TN, USA). The parameters quantified on this stage were: blood count-packed cell volume (PCV), red blood cell (RBC) count, hemoglobin (Hb), platelet count, white blood cell (WBC) count, mean cell hemoglobin concentration (MCHC), mean red cell volume (MCV), mean cell hemoglobin (MCH), prothrombin time (PT), and activated partial thromboplastin time (aPTT).

Wistar rats [3] = conditions: rat, in vivo, po
[4] = MTT-based cytotoxicity assay in VERO cells; assay type: cell-based, green Monkey; conditions: green monkey, MTT
Procedure: as §1

Swiss-albino mice = conditions: cited from earlier work

Structure (SMILES): O=C1C[C@@H](c2ccc(O)cc2)Oc2cc(O)cc(O)c21 [NARGE, naringenin]
- percentage viability / growth of cells (VERO cells): did not change the percentage of growth
- percentage viability / growth of cells (MDCK cells): did not change the percentage of growth
- rats' weight vs control (Wistar rats [1]): modifies rats’ weight
- Erythrocytes (Wistar rats [2]; rat, in vivo, po, 300 mg/kg): 6.98±1.18 106/µL
- Hb (Wistar rats [2]; rat, in vivo, po, 300 mg/kg): 12.00 ± 1.81 g/dL
- Hto (Wistar rats [2]; rat, in vivo, po, 300 mg/kg): 36.76±5.31%
- Leukocytes (Wistar rats [2]; rat, in vivo, po, 300 mg/kg): 5.31±0.74 103/µL
- MCH (Wistar rats [2]; rat, in vivo, po, 300 mg/kg): 17.40 ± 0.39 pg
- MCHC (Wistar rats [2]; rat, in vivo, po, 300 mg/kg): 32.53 ± 0.49 g/dL
- MCV (Wistar rats [2]; rat, in vivo, po, 300 mg/kg): 53.46 ± 1.87 fL
- Platelets (Wistar rats [2]; rat, in vivo, po, 300 mg/kg): 726.00±12.26 105/µL
- RBCDW (Wistar rats [2]; rat, in vivo, po, 300 mg/kg): 17.80±1.89%
- APTT (Wistar rats [2]; rat, in vivo, po, 2000 mg/kg): 26.26 ± 1.85 s
- Erythrocytes (Wistar rats [2]; rat, in vivo, po, 2000 mg/kg): 8.03±0.29 106/µL
- Hb (Wistar rats [2]; rat, in vivo, po, 2000 mg/kg): 14.23 ± 0.22 g/dL
- Hto (Wistar rats [2]; rat, in vivo, po, 2000 mg/kg): 44.63±0.44%
- Leukocytes (Wistar rats [2]; rat, in vivo, po, 2000 mg/kg): 5.57±1.20 103/µL
- MCH (Wistar rats [2]; rat, in vivo, po, 2000 mg/kg): 18.05 ± 0.39 pg
- MCHC (Wistar rats [2]; rat, in vivo, po, 2000 mg/kg): 31.25 ± 0.18 g/dL
- MCV (Wistar rats [2]; rat, in vivo, po, 2000 mg/kg): 57.85 ± 1.59 fL
- PT (Wistar rats [2]; rat, in vivo, po, 2000 mg/kg): 15.46 ± 0.71 s
- RBCDW (Wistar rats [2]; rat, in vivo, po, 2000 mg/kg): 18.93±0.14%
- ALB (albumin) (Wistar rats [3]; 300 mg/kg): 3.86 ± 0.10 g/dL
- ALB/GL Ratio (Wistar rats [3]; 300 mg/kg): 1.26 ± 0.08
- ALT (Wistar rats [3]; 300 mg/kg): 39.19 ± 0.77 IU/L
- AST (Wistar rats [3]; 300 mg/kg): 156.06 ± 9.33 IU/L
- DB (direct bilirubin) (Wistar rats [3]; 300 mg/kg): 0.013 ± 0.007 mg/dL
- GL (globulin) (Wistar rats [3]; 300 mg/kg): 3.11 ± 0.25 g/dL
- GLU (glucose) (Wistar rats [3]; 300 mg/kg): 145.29 ± 5.47 mg/dL
- IB (indirect bilirubin) (Wistar rats [3]; 300 mg/kg): 0.051 ± 0.007 mg/dL
- TB (total bilirubin) (Wistar rats [3]; 300 mg/kg): 0.064 ± 0.005 mg/dL
- TP (total protein) (Wistar rats [3]; 300 mg/kg): 6.97 ± 0.30 g/dL
- ALB (albumin) (Wistar rats [3]; 2000 mg/kg): 4.74 ± 0.16 g/dL
- ALB/GL Ratio (Wistar rats [3]; 2000 mg/kg): 1.56 ± 0.14
- ALT (Wistar rats [3]; 2000 mg/kg): 57.68 ± 10.97 IU/L
- AST (Wistar rats [3]; 2000 mg/kg): 149.37 ± 7.16 IU/L
- DB (direct bilirubin) (Wistar rats [3]; 2000 mg/kg): 0.020 ± 0.001 mg/dL
- GL (globulin) (Wistar rats [3]; 2000 mg/kg): 3.08 ± 0.17 g/dL
- GLU (glucose) (Wistar rats [3]; 2000 mg/kg): 175.56 ± 6.80 mg/dL
- IB (indirect bilirubin) (Wistar rats [3]; 2000 mg/kg): 0.045 ± 0.060 mg/dL
- TB (total bilirubin) (Wistar rats [3]; 2000 mg/kg): 0.065 ± 0.007 mg/dL
- TP (total protein) (Wistar rats [3]; 2000 mg/kg): 7.82 ± 0.07 g/dL

Structure (SMILES): O=c1c(O)c(-c2ccc(O)c(O)c2)oc2cc(O)cc(O)c12 [QRT, Quercetin]
- IC50 at 48 h [4]: 465 µM and 141 µg/mL
- IC50 at 48 h ([4]; abstract, first value of 'respectively'): 219 ± 7.22 µM
- percentage viability / growth of cells (VERO cells): produced a decrease in the percentage viability
- percentage viability / growth of cells (MDCK cells): caused significant differences in the rate of cell viability
- MCV (Wistar rats [2]): 56.45 ± 3.05 fL
- PT (Wistar rats [2]): 16.20 ± 2.00 s
- Platelets (Wistar rats [2]): 759.00±22.00 105/µL
- RBCDW (Wistar rats [2]): 17.95±0.45%
- APTT (Wistar rats [2]; rat, in vivo, po, 50 mg/kg): 14.55 ± 0.25 s
- Hb (Wistar rats [2]; rat, in vivo, po, 50 mg/kg): 14.55 ± 0.65 g/dL
- Hto (Wistar rats [2]; rat, in vivo, po, 50 mg/kg): 45.50±2.30%
- Leukocytes (Wistar rats [2]; rat, in vivo, po, 50 mg/kg): 3.65±0.60 103/µL
- MCH (Wistar rats [2]; rat, in vivo, po, 50 mg/kg): 18.05 ± 0.85 pg
- APTT (Wistar rats [2]; rat, in vivo, po, 300 mg/kg): 15.75 ± 1.45 s
- Erythrocytes (Wistar rats [2]; rat, in vivo, po, 300 mg/kg): 8.12±0.32 106/µL
- Hb (Wistar rats [2]; rat, in vivo, po, 300 mg/kg): 14.67 ± 0.45 g/dL
- Hto (Wistar rats [2]; rat, in vivo, po, 300 mg/kg): 45.73±1.15%
- Leukocytes (Wistar rats [2]; rat, in vivo, po, 300 mg/kg): 4.21±0.38 103/µL
- MCH (Wistar rats [2]; rat, in vivo, po, 300 mg/kg): 18.07 ± 0.20 pg
- MCV (Wistar rats [2]; rat, in vivo, po, 300 mg/kg): 56.37 ± 0.90 fL
- PT (Wistar rats [2]; rat, in vivo, po, 300 mg/kg): 16.00 ± 2.65 s
- Platelets (Wistar rats [2]; rat, in vivo, po, 300 mg/kg): 665.00±125.33 105/µL
- RBCDW (Wistar rats [2]; rat, in vivo, po, 300 mg/kg): 16.80±0.20%
- ALB (albumin) (Wistar rats [3]; 50 mg/kg): 3.88 ± 0.04 g/dL
- ALB/GL Ratio (Wistar rats [3]; 50 mg/kg): 1.56 ± 0.087
- GL (globulin) (Wistar rats [3]; 50 mg/kg): 2.50 ± 0.14 g/dL
- GLU (glucose) (Wistar rats [3]; 50 mg/kg): 119.67 ± 8.74 mg/dL
- IB (indirect bilirubin) (Wistar rats [3]; 50 mg/kg): 0.036 ± 0.003 mg/dL
- TB (total bilirubin) (Wistar rats [3]; 50 mg/kg): 0.08 ± 0.006 mg/dL
- TP (total protein) (Wistar rats [3]; 50 mg/kg): 6.38 ± 0.15 g/dL
- ALB (albumin) (Wistar rats [3]; 300 mg/kg): 3.63 ± 0.09 g/dL
- ALB/GL Ratio (Wistar rats [3]; 300 mg/kg): 1.39 ± 0.15
- DB (direct bilirubin) (Wistar rats [3]; 300 mg/kg): 0.016 ± 0.004 mg/dL
- GL (globulin) (Wistar rats [3]; 300 mg/kg): 2.84 ± 0.16 g/dL
- GLU (glucose) (Wistar rats [3]; 300 mg/kg): 149.49 ± 5.00 mg/dL
- IB (indirect bilirubin) (Wistar rats [3]; 300 mg/kg): 0.030 ± 0.006 mg/dL
- TB (total bilirubin) (Wistar rats [3]; 300 mg/kg): 0.05 ± 0.003 mg/dL
- TP (total protein) (Wistar rats [3]; 300 mg/kg): 6.48 ± 0.065 g/dL
- alkaline phosphatase (ALP) (Swiss-albino mice; 128 or 450 mg/kg orally for 14 days): increased
- AST (Swiss-albino mice; higher dose, orally for 14 days): declined
- bilirubin (Swiss-albino mice; only at 128 mg/kg, orally for 14 days): also increased
